Source: patent publication US8686021B2, “Use of a benzoyl derivative of 3-aminocarbazole for the treatment of a disorder associated with the production of prostaglandin E2 (PGE2)” (Aziende Chimiche Riunite Angelini Francesco A.C.R.A.F. …, priority 2005, dated 2014)

Legend:
[1] = system: production of PGE2; assay: In-vitro activity test: inhibition of PGE2 production in IL-1β-stimulated A549 cells; type: cell-based, human; details: 18 hours
Source text: (§1) This test is used to evaluate capability to inhibit the production of PGE2 and selectivity with respect to the production of PGF2, for each of the compounds under examination.
(§2) Cell line A549, human lung adenocarcinoma, which is particularly sensitive to stimulation with proinflammatory cytokines such as IL-1β, and, in response to that stimulation, particularly active in the production and release of two prostanoids: PGE2 and PGF2α (Thoren S., Jakobsson P. J. “Coordinate up- and down-regulation of glutathione-dependent prostaglandin E synthase and cyclooxygenase-2 in A549 cells. Inhibition by NS-398 and leukotriene C4”, Eur. J. Biochem. 2000, 267(21):6428-6434)) was used.
(§3) The cells were stimulated with IL-1β (1 ng/ml) and at the same time treated with the compounds under test for 18 hours in an appropriate culture medium (DMEM—Dulbecco's Modified Eagles Medium) enriched with 5% bovine foetal serum and L-glutamine (4 mM final) in an incubator at 37° C. and with a CO2 concentration of 5%.
(§4) After incubation the quantities of PGE2 and PGF2α produced and released into the supernatant were determined using an EIA kit (manufactured and marketed by Cayman Chemicals, Ann Arbor, Mich., USA).
(§5) The results, shown in Table 3, are expressed as percentage inhibition of the production of PGE2 and PGF2α at a concentration of […].

[2] = system: production of PGF2α; assay: In-vitro activity test: inhibition of PGF2α production in IL-1β-stimulated A549 cells; type: cell-based, human; details: 18 hours
Source text: as §1, §2, §3, §4, §5

[3] = system: production of PGI2; assay: Test on human primary endothelial cells (HUVEC): secretion of PGI2; type: cell-based
Method: This test is used to evaluate the ability of the compounds in Table 2 to inhibit the production of PGI2.
The absence of inhibitory activity on these prostanoids may ensure that the vasoprotective action of PGI2 is maintained and provides useful pharmacological information about the absence of adverse effects on the endothelium.
Compound 1 was used in the test.
The action of the compound under test was evaluated in HUVEC cells under basal and stimulation conditions (J. Immunol. 1989 Jun. 1; 142(11):3993-9).
The results are shown in Table 6 and are expressed as percentage inhibition in comparison with control enzyme activity.
Indomethacin was used as the reference compound.

[4] = system: pained behaviour induced by acetic acid in mice; assay: In-vivo activity test: acetic acid-induced stretching (nociceptive test of inflammatory origin) in mice; details: female CD-1 mice; 30 mg/kg orally in methyl cellulose (MTC), 1 hour before acetic acid i.p.; mean±SD; vehicle MTC 58 ± 5
Method: This test makes it possible to evaluate the activity of the compounds according to this invention in a nociceptive test of inflammatory origin. Compound 1 was used for this purpose in an experimental model which provokes pained behaviour induced by acetic acid in mice (Stock, J. L. et al., J. Clin. Inv. 2001, 107:325-331). Female CD-1 mice weighing 25-30 g were used for the test.
The animals were treated orally with compound 1 (30 mg/kg) suspended in methyl cellulose (MTC). The control animals were treated with the vehicle (MTC) alone, orally.
One hour after treatment acetic acid (0.7% v/v in physiological solution, 16 μl/g of body weight) was injected into the animals intraperitoneally to induce inflammatory pain and check the effects of the treatment on the nociceptive response.
The number of stretches, which represents the evaluation parameter for the nociceptive response, was measured immediately after the administration of acetic acid and for the next 20 minutes.

[5] = Homo sapiens, 10 μM, A549 cells stimulated with IL-1β (1 ng/ml), EIA kit
[6] = 10 μM, A549 cells stimulated with IL-1β (1 ng/ml), EIA kit
[7] = A549 cells stimulated with IL-1β

Structure (SMILES)	% inhibition at 10 μM PGE2 [1, 6] [%]	pIC50 PGE2 [1, 7]	% inhibition at 10 μM PGF2α [2, 6] [%]	pIC50 PGF2α [2, 7]	also measured
COc1ccc2c(c1)c(CC(=O)O)c(C)n2C(=O)c1ccc(Cl)cc1 [Indomethacin, reference compound]					inhibition at 10 µM [1, 5]: 100%; IC50 ([1]; Homo sapiens, A549 cells stimulated with IL-1β, read-out: pIC50 PGE2 (converted)): 5.01 nM; inhibition at 10 µM [2, 5]: 100%; IC50 ([2]; Homo sapiens, A549 cells stimulated with IL-1β, read-out: pIC50 PGF2α (converted)): 2.51 nM; inhibition at 10 µM ([3]; Homo sapiens, stimulation conditions, read-out: % inhibition, test for the secretion of PGI2, Stimulated (HUVEC)): 100%
CCn1c2ccccc2c2cc(NC(=O)c3ccccc3I)ccc21 [Compound 4]	84	5.4	0	<4	
CCn1c2ccccc2c2cc(NC(=O)c3ccccc3Cl)ccc21 [Compound 1]	82	5.7	16	4.1	No. stretches in 20 min [4]: 40 ± 5; % inhibition, test for the secretion of PGI2, Basal (HUVEC) ([3]; 10 μM, basal conditions): 0%; % inhibition, test for the secretion of PGI2, Stimulated (HUVEC) ([3]; 10 μM, stimulation conditions): 0%
CCn1c2ccccc2c2cc(NC(=O)c3c(Cl)cccc3Cl)ccc21 [Compound 6]	89		51		
CCn1c2ccccc2c2cc(NC(=O)c3ccccc3C)ccc21 [Compound 2]	83	5.3	44	4.3	
CCn1c2ccccc2c2cc(NC(=O)c3ccccc3Br)ccc21 [Compound 3]	81	5.5	0	<4	
CCn1c2ccccc2c2cc(NC(=O)c3ccccc3OC)ccc21 [A, reference compound]	98		95		
CCn1c2ccccc2c2cc(NC(=O)c3cc(Cl)ccc3Cl)ccc21 [Compound 8]	93		37		
CCn1c2ccccc2c2cc(NC(=O)c3cc([N+](=O)[O-])ccc3Cl)ccc21 [Compound 7]	70		0		
CCn1c2ccccc2c2cc(NC(=O)c3ccc(C)cc3)ccc21 [C, reference compound]	43		49		
CCn1c2ccccc2c2cc(NC(=O)c3ccccc3[N+](=O)[O-])ccc21 [Compound 5]	27		0		
CCn1c2ccccc2c2cc(NC(=O)c3ccccc3)ccc21 [B, reference compound]	46		40		
